Assay results reported in ChEMBL document CHEMBL1134748, “Identification and characterization of a potential ischemia-selective N-methyl-D-aspartate (NMDA) receptor ion-channel blocker, CNS 5788” (Bioorg Med Chem Lett, 2001).

Experiments:
[1] = Cardiac sodium channel blocking activity by [14C]guanidinium flux assay; format: functional
[2] = molecular target: Sodium channel alpha subunits; brain (Types I, II, III) (Homo sapiens, UniProt P35498+Q99250+Q9NY46); assay: Neuronal sodium channel blocking activity by [14C]guanidinium flux assay; format: functional
[3] = test system: Rattus norvegicus; assay: Tested in rat middle cerebral artery occlusion model (MACO model) and percent reduction in total lesion volume at the dose of 1.5 mg/kg (combination ip and iv); format: functional; conditions: route intraperitoneal
[4] = test system: Rattus norvegicus; assay: Compound was tested in hypoxia -ischemia reduction model for percent reduction in lesion volume at the dose 4 mg/kg (iv); format: functional
[5] = species on record: Mus musculus; assay: Effective dose required to block the audiogenic seizures.; format: functional
[6] = Lowest effective intravenous dose required to observe the behavioral effects (excitation); format: functional
[7] = test system: Rattus norvegicus; assay: Compound was tested in rotarod motor assay and the effective intravenous dose required to fall from the rod was reported.; format: functional
[8] = molecular target: Glutamate [NMDA] receptor; assay: In vitro displacement of [3H]MK-801 from N-methyl-D-aspartate glutamate receptor; format: protein-complex assay
[9] = Half life value of the compound; format: ADME; conditions: rat
[10] = test system: Rattus norvegicus; assay: Compound was tested in hypoxia -ischemia reduction model for percent reduction in lesion volume at the dose 10 mg/kg (ip)
[11] = test system: Rattus norvegicus; assay: Compound was tested in hypoxia -ischemia reduction model for percent reduction in lesion volume at the dose 20 mg/kg (ip)
[12] = test system: Rattus norvegicus; assay: Tested in rat middle cerebral artery occlusion model (MACO model) and percent reduction in total lesion volume at the dose of 4.5 mg/kg (combination ip and iv); conditions: route intraperitoneal

SMILES | IC50 [1] | IC50 [2] | Reduction [3] | Reduction [4] | ED50 [5] | Dose [6] | ED50 [7] | Ki [8] | half-life [9] | Reduction [10] | Reduction [11] | Reduction [12] | T1/2 [9]
CSc1cccc(N(C)C(=N)Nc2cc(SC)ccc2Cl)c1 [CNS-5161] | 2.25 µM | 1.75 µM | 33% | 74% | 0.9 mg/kg | 0.25 mg/kg | 0.14 mg/kg | – | – | – | – | – | –
CSc1cccc(N(C)C(=N)Nc2cc([S+](C)[O-])ccc2Cl)c1.Cl (centres undefined) | 29.5 µM | > 25 µM | – | – | – | – | – | 0.834 µM | – | – | – | – | –
CSc1ccc(Cl)c(NC(=N)N(C)c2cccc([S+](C)[O-])c2)c1 (stereo in doubt; 10) | 26 µM | 83.1 µM | – | – | 12 mg/kg | 4 mg/kg | 8.8 mg/kg | 0.179 µM | 31 min | 60% | 100% | 32% | –
CSc1ccc(Cl)c(NC(=N)N(C)c2cccc([S+](C)[O-])c2)c1 (single isomer, unassigned; (-)) | 26 µM | > 25 µM | – | – | – | – | – | 0.321 µM | – | – | – | – | –
CSc1ccc(Cl)c(NC(=N)N(C)c2cccc([S+](C)[O-])c2)c1 (stereo in doubt; 15) | 23.7 µM | > 25 µM | – | – | – | – | – | 0.233 µM | – | – | – | – | 32 min
CN(C(=N)Nc1cc([S+](C)[O-])ccc1Cl)c1cccc([S+](C)[O-])c1 (centres undefined) | 81 µM | > 25 µM | – | – | – | – | – | – | – | – | – | – | –
